Results on four compounds are retold here after article PMC5564600 (Oncotarget, 2017).

SMILES strings stand for the structures.

Holding throughout (assay): biochemical
Common to all, as to assay type: binding

For assay [1], the target named is T1, panel of 442 kinases (Homo sapiens, UniProt P30291).
T1 construct: purchased Ambit Biosciences (scanMAXX KINOMEscan)
The conditions noted are these: kinase WEE1; for remaining activity at 1 µM: read-out: WEE1 (% of control at 1 µM).

Assay [2] addresses T2, panel of 442 kinases (Homo sapiens, UniProt Q14289).
T2 construct: purchased Ambit Biosciences (scanMAXX KINOMEscan)
Particulars: kinase PYK2; for remaining activity at 1 µM: read-out: PYK2 (% of control at 1 µM).

In assay [3] the target is T3, panel of 442 kinases (Homo sapiens, UniProt Q86UE8).
T3 construct: purchased Ambit Biosciences (scanMAXX KINOMEscan)
The conditions noted are these: kinase TLK2; for remaining activity at 1 µM: read-out: TLK2 (% of control at 1 µM).

Assay [4] has as its target T4, panel of 442 kinases (Homo sapiens, UniProt O95835).
T4 construct: purchased Ambit Biosciences (scanMAXX KINOMEscan)
T4 sequence (O95835 1-1130): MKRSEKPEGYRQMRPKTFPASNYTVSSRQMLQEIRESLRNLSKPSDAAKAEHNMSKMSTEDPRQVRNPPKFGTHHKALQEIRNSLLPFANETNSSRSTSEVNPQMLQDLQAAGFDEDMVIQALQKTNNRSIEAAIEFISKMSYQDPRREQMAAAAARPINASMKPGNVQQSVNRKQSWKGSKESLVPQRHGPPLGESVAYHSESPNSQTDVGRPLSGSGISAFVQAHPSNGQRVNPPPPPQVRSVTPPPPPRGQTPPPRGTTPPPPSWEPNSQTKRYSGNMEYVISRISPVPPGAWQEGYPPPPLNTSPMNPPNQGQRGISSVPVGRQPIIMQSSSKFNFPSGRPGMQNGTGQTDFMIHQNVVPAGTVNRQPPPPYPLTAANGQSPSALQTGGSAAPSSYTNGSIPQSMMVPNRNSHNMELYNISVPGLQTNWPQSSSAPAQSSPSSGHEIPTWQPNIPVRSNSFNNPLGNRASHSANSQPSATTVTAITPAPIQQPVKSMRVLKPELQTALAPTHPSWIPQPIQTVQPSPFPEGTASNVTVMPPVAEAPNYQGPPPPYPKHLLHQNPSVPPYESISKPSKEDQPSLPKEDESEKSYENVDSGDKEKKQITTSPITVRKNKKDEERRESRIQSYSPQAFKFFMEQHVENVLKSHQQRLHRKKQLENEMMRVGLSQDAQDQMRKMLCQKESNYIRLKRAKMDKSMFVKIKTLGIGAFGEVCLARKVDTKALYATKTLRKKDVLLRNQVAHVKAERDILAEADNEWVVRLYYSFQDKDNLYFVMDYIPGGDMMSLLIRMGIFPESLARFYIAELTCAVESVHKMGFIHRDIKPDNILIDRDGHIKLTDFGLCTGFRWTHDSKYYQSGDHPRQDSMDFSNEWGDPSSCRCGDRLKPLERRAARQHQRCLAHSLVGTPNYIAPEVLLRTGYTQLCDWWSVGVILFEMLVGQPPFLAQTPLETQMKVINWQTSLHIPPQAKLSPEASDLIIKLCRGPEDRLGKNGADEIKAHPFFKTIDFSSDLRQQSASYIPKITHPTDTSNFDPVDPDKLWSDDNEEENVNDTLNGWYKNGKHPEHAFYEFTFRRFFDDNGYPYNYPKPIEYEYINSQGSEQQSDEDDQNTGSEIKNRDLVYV
Particulars: kinase LATS1; for remaining activity at 1 µM: read-out: % of control at 1 µM.

The target in assay [5] is T5, panel of 442 kinases (Homo sapiens, UniProt Q9UL54).
T5 construct: purchased Ambit Biosciences (scanMAXX KINOMEscan)
T5 sequence (Q9UL54 1-1235): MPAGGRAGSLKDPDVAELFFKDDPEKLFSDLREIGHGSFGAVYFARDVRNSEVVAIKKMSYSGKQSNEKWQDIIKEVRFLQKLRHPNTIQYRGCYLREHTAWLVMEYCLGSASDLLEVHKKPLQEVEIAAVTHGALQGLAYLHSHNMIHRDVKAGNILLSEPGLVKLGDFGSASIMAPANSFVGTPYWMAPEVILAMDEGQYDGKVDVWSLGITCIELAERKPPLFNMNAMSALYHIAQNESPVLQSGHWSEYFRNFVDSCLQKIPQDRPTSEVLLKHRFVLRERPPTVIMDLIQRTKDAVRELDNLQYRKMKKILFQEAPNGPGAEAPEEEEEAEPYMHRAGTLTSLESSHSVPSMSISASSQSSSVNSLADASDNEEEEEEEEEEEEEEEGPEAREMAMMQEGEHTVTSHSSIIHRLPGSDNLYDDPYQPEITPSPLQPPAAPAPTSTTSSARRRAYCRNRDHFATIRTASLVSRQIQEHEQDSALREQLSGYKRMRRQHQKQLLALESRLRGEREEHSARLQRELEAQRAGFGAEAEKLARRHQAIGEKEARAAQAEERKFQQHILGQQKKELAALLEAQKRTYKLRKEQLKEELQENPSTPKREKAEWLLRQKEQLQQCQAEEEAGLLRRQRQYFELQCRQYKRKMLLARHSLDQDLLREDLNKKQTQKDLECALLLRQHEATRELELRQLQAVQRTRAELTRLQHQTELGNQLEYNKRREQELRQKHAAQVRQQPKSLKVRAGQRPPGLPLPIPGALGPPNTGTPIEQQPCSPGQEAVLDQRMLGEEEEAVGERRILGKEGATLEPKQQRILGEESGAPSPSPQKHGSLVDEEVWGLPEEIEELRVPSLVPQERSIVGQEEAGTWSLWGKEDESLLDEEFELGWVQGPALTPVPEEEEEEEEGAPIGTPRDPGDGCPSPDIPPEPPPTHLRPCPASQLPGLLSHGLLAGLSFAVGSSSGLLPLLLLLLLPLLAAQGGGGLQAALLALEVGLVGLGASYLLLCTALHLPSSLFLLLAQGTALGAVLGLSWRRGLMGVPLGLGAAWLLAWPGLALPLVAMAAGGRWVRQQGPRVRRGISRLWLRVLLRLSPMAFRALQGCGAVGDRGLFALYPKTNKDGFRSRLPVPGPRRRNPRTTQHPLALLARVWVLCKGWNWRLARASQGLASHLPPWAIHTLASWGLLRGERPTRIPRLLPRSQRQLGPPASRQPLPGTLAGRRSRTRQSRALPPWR
Particulars: kinase TAOK2; for remaining activity at 1 µM: read-out: TAOK2 (% of control at 1 µM).

T3 sequence (Q86UE8 whole entry): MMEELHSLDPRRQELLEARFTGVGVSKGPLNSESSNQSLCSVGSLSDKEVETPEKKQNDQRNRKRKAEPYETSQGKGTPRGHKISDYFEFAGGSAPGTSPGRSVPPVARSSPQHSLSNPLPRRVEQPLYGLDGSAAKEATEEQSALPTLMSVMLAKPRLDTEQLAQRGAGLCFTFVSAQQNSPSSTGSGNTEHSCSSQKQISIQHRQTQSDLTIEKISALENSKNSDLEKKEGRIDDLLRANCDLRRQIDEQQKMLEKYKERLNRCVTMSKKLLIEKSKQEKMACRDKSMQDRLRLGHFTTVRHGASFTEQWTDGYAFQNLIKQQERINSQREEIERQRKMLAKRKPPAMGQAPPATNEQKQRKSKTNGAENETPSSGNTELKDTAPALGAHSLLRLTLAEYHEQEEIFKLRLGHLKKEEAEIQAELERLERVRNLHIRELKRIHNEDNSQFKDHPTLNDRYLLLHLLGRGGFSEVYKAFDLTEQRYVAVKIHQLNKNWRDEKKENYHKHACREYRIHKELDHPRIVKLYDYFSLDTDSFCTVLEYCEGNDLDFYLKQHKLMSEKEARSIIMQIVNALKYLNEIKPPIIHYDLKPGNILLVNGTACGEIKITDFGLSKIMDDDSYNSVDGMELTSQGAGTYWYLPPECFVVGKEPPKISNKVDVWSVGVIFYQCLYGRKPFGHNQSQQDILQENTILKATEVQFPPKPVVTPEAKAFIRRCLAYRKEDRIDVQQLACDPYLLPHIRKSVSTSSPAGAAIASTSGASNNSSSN
T2 sequence (Q14289 whole entry): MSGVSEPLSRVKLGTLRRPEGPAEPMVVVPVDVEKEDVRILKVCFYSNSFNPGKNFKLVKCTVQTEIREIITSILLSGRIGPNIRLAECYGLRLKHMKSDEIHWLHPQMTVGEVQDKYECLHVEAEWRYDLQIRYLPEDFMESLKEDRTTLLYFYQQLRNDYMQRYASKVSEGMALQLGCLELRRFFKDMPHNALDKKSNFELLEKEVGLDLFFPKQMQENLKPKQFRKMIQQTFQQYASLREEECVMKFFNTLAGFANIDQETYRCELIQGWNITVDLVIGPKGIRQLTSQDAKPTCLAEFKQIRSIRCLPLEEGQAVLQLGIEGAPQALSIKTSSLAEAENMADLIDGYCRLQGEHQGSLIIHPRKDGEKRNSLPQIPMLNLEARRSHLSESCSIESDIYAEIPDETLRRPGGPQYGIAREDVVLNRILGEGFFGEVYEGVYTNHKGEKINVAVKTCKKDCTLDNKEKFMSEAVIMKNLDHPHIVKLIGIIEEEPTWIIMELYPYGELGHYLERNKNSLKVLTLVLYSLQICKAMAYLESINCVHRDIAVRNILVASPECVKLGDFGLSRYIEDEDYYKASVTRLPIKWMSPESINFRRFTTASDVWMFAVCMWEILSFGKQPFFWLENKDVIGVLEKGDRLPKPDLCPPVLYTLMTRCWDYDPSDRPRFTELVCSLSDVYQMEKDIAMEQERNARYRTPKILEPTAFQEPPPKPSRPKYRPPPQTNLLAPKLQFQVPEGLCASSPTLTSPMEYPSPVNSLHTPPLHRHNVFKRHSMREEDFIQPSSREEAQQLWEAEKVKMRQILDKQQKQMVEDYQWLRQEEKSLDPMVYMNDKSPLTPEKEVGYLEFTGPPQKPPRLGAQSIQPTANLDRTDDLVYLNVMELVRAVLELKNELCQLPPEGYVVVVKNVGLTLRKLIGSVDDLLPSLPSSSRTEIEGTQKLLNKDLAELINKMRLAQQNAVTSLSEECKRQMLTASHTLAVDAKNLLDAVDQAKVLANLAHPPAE
T1 sequence (P30291 whole entry): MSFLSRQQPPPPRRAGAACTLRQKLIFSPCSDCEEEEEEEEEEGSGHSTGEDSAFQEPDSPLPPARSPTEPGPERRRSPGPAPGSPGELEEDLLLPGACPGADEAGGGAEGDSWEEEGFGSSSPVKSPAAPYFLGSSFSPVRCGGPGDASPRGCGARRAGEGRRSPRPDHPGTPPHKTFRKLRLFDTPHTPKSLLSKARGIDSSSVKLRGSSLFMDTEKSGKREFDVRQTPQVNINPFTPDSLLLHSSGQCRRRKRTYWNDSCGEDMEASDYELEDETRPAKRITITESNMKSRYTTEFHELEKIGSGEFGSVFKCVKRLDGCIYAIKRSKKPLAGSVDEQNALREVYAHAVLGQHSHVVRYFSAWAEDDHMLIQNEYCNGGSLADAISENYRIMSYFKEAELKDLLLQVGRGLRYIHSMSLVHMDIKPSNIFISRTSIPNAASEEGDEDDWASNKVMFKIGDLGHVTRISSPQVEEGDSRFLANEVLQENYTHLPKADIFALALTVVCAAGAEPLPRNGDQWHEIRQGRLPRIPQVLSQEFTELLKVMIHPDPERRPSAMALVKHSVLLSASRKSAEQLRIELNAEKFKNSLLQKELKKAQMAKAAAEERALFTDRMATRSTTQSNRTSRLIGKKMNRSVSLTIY

For `Nc1cc(C(F)(F)F)c(-c2cc(N3CCOCC3)nc(N3CCOCC3)n2)cn1` [Buparlisib], the remaining activity at 1 µM on panel of 442 kinases [1] turned out to be 100%; at panel of 442 kinases [2], 100%; at panel of 442 kinases [3] it was 100%; on panel of 442 kinases [4], 71%; on panel of 442 kinases [5], 87%. The remaining activity at 10 µM came to 100% on panel of 442 kinases [1] (10 µM, read-out: WEE1 (% of control at 10 µM)); 100% at panel of 442 kinases [2] (10 µM, read-out: PYK2 (% of control at 10 µM)); 100% on panel of 442 kinases [3] (10 µM, read-out: TLK2 (% of control at 10 µM)); 100% on panel of 442 kinases [4] (10 µM, read-out: % of control at 10 µM); 84% on panel of 442 kinases [5] (10 µM, read-out: TAOK2 (% of control at 10 µM)).

As for `Cn1c(=O)n(-c2ccc(C(C)(C)C#N)cc2)c2c3cc(-c4cnc5ccccc5c4)ccc3ncc21` [Dactolisib, 2-methyl-2-[4-(3-methyl-2-oxo-8-quinolin-3-yl-2,3-dihydroimidazo[4,5-c]quinolin-1-yl)-phenyl] propionitrile], the remaining activity at 1 µM was found to be 100% on panel of 442 kinases [1]; 86% on panel of 442 kinases [2]; 93% at panel of 442 kinases [3]; 100% on panel of 442 kinases [4]; 98% at panel of 442 kinases [5].

As to `FC(F)c1nc2ccccc2n1-c1nc(N2CCOCC2)nc(N2CCOCC2)n1` [ZSTK474, 2-(difluoromethyl)-1-[4,6-di(4-morpholinyl)-1,3,5-triazin-2-yl]-1H-benzimidazole], the remaining activity at 1 µM at panel of 442 kinases [1] was determined as 100%; at panel of 442 kinases [2], 100%; on panel of 442 kinases [3], 100%; at panel of 442 kinases [4] it was 90%; at panel of 442 kinases [5] it was 81%.

For `COc1ncc(-c2ccc3nccc(-c4ccnnc4)c3c2)cc1NS(=O)(=O)c1ccc(F)cc1F` [Omipalisib], the remaining activity at 1 µM at panel of 442 kinases [1], on panel of 442 kinases [2], on panel of 442 kinases [3], at panel of 442 kinases [4] and at panel of 442 kinases [5] was 100% throughout.
